Test results from patent US10450344B2, “Antibody-binding polypeptide, antibody-binding fusion polypeptide, and adsorption material” (FUJIFILM Corporation, priority 2014, dated 2019).
Square brackets hold non-standard residues; d marks the D form. Peptide text beside a SMILES is read from it. PEG8 = NCCOCCOCCOCCOCCOCCOCCOCCOCCC(=O)O

Key:
human IgG antibody = experiment: SPR evaluation of antibody binding properties of ligand immobilized on CM5 sensor chip; settings: for dissociation rate Koff: SPR, human IgG antibody, 25° C., HEPES buffer, fitting with BIAevaluation4.1
Experimental: The association rate Kon [nM/s] and the dissociation rate Koff [l/s ] of an antibody were calculated from the binding reaction curve, and also the dissociation constant Kd [nM] in the binding reaction of polypeptide 1 with a human IgG antibody was calculated.

[1] = Evaluation of alkali resistance (1N NaOH, then antibody-binding amount by SPR); assay type: physicochemical
Experimental: The synthesized polypeptide 1 was immersed in 1N NaOH at room temperature for 1 hour, and then the ligand was immobilized as in the above (1).

[2] = biological target: Bovine Serum Albumin (BSA) (Bos taurus, UniProt P02769); experiment: SPR evaluation of selectivity (binding of BSA to immobilized carrier)
Experimental: A commercially available CM5 (carboxymethyl dextran introduction type, manufactured by GE Healthcare) sensor chip was set on a surface plasmon resonance (SPR) apparatus Biacore (manufactured by GE Healthcare), HEPES buffer (20 mM HEPES-HCl, 150 mM NaCl, pH 7.4) for SPR was stabilized at a flow rate of 10 μL/min, and 70 μL of a mixed aqueous solution of 0.2 M 1-ethyl-3-(3-dimethylaminopropyl)carbodiimide (EDC, manufactured by Wako Pure Chemical Industries, Ltd.) and 0.04 M N-hydroxysuccinimide (NHS, manufactured by Wako Pure Chemical Industries, Ltd.) was added. Then, 500 μL of a sample solution of polypeptide 1 diluted to 100 μM with the above-mentioned HEPES buffer and treated with a 0.20 μm PTFE filter (manufactured by [sequence]) was supplied to a carrier sample, blocked by an ethanolamine solution, and washed with an aqueous sodium hydroxide solution, followed by immobilization to prepare an immobilized carrier.
1000 nM of Bovine Serum Albumin (BSA, manufactured by Sigma-Aldrich) was added to the immobilized carrier A prepared in the above (1) at 25° C. over 10 min, and the binding amount after 10 minutes in HEPES buffer was measured by SPR.

[3] = Evaluation of temporal stability (solution stored at 40° C. for one month, then antibody-binding amount by SPR)
Experimental: A solution of the synthesized polypeptide 1 was stored in a constant-temperature zone (40° C.) for one month, and then the ligand was immobilized as in the above (1).

Bovine Serum Albumin (BSA), sequence (P02769 25-607): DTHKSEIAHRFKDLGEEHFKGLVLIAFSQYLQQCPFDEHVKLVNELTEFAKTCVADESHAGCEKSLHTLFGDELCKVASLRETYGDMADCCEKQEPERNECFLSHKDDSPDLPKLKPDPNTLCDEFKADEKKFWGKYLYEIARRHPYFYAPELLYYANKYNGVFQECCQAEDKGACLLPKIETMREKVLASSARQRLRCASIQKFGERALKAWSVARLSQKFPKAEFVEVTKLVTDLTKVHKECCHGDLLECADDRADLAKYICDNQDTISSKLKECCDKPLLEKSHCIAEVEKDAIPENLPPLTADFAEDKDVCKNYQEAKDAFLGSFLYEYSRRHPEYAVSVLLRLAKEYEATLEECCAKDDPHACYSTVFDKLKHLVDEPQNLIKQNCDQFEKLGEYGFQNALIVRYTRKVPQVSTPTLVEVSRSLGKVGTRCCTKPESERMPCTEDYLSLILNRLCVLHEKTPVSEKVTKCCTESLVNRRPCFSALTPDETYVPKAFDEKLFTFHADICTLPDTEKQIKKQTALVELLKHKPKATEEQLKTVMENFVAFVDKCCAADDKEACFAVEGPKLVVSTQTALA

NCCNc1nc(NCCc2ccc(O)cc2)nc(Nc2ccccc2)n1 [Comparative Example 3]
antibody binding properties (in words) (human IgG antibody): insufficient
dissociation rate Koff (human IgG antibody): 0.00065 s⁻¹
alkali resistance (in words) [1]: sufficient
selectivity (in words) [2]: insufficient
temporal stability (in words) [3]: sufficient

H-KKKEQQNAFYKKK-OH [Example 6]
dissociation rate Koff (human IgG antibody): 0.00015 s⁻¹

H-EQQNAFYGGGKGGGEQQNAFY-OH [Example 8]
dissociation rate Koff (human IgG antibody): 0.00015 s⁻¹

Ac-KKKEQQNAFYKKK-OH [Example 22]
dissociation rate Koff (human IgG antibody): 0.00015 s⁻¹

H-KKKEQQNAFYEILHKKK-OH [Example 7]
dissociation rate Koff (human IgG antibody): 0.00016 s⁻¹

H-EAQQSAFY-OH [Example 14]
dissociation rate Koff (human IgG antibody): 0.00014 s⁻¹

Ac-EQQNAFYEILHK-OH [Example 21]
dissociation rate Koff (human IgG antibody): 0.00016 s⁻¹

H-EQQNAFY-NH2 [Example 19, EQQNAFY-NH2]
dissociation rate Koff (human IgG antibody): 0.00015 s⁻¹

Ac-KKKEQQNAFYEILHKKK-OH [Example 23]
dissociation rate Koff (human IgG antibody): 0.00016 s⁻¹

H-DQQSAFYEILH-OH [Example 13]
dissociation rate Koff (human IgG antibody): 0.00015 s⁻¹

H-EAQQNAFY-OH [Example 16]
dissociation rate Koff (human IgG antibody): 0.00019 s⁻¹

Ac-EQQNAFYK-OH [Example 20]
dissociation rate Koff (human IgG antibody): 0.00014 s⁻¹

H-EQQNAFYEILHL-OH [Example 4]
dissociation rate Koff (human IgG antibody): 0.00013 s⁻¹

H-EQQNAFYEILH-OH [Example 3]
dissociation rate Koff (human IgG antibody): 0.00017 s⁻¹

H-DQSAFY-OH [Example 18, DQSAFY]
dissociation rate Koff (human IgG antibody): 0.00019 s⁻¹

H-EQQSAFYEILH-OH [Example 11]
dissociation rate Koff (human IgG antibody): 0.00018 s⁻¹

H-EQNAFY-OH [Example 9, EQNAFY]
dissociation rate Koff (human IgG antibody): 0.00017 s⁻¹

H-DAQQSAFY-OH [Example 17]
dissociation rate Koff (human IgG antibody): 0.00013 s⁻¹

Comparative Example 1: wild-type protein A (manufactured by Repligen Corporation) [reference compound]
dissociation rate Koff (human IgG antibody): 0.00025 s⁻¹

H-KEQQNAFY-OH [Example 2]
dissociation rate Koff (human IgG antibody): 0.00013 s⁻¹

C[C@H](NC(=O)[C@H](CC(N)=O)NC(=O)[C@H](CCC(N)=O)NC(=O)[C@H](CCC(N)=O)NC(=O)[C@H](CCC(=O)O)NC(=O)CCOCCOCCOCCOCCOCCOCCOCCOCCN)C(=O)N[C@@H](Cc1ccccc1)C(=O)N[C@@H](Cc1ccc(O)cc1)C(=O)N[C@@H](CCC(=O)O)C(=O)O [Example 24] (H-[PEG8]EQQNAFYE-OH)
dissociation rate Koff (human IgG antibody): 0.00013 s⁻¹

H-EQSAFY-OH [Example 15, EQSAFY]
dissociation rate Koff (human IgG antibody): 0.00014 s⁻¹

H-EQQNAFY-OH [Example 1, EQQNAFY]
dissociation rate Koff (human IgG antibody): 0.00017 s⁻¹

H-DQQSAFY-OH [Example 12, DQQSAFY]
dissociation rate Koff (human IgG antibody): 0.00015 s⁻¹

H-EQQSAFY-OH [Example 10, EQQSAFY]
dissociation rate Koff (human IgG antibody): 0.00015 s⁻¹

CC(=O)N[C@@H](CCC(=O)O)C(=O)N[C@@H](CCC(N)=O)C(=O)N[C@@H](CCC(N)=O)C(=O)N[C@@H](CC(N)=O)C(=O)N[C@@H](C)C(=O)N[C@@H](Cc1ccccc1)C(=O)N[C@@H](Cc1ccc(O)cc1)C(=O)NCCOCCOCCOCCOCCOCCOCCOCCOCCC(=O)N[C@@H](CCCCN)C(=O)NCCOCCOCCOCCOCCOCCOCCOCCOCCC(=O)N[C@@H](CCC(=O)O)C(=O)N[C@@H](CCC(N)=O)C(=O)N[C@@H](CCC(N)=O)C(=O)N[C@@H](CC(N)=O)C(=O)N[C@@H](C)C(=O)N[C@@H](Cc1ccccc1)C(=O)N[C@@H](Cc1ccc(O)cc1)C(=O)O [Example 25, Ac-EQQNAFY-(peg)8-K-(peg)8-EQQNAFY] (Ac-EQQNAFY[PEG8]K[PEG8]EQQNAFY-OH)
dissociation rate Koff (human IgG antibody): 0.00019 s⁻¹

H-EGQNAFY-OH [Example 5, EGQNAFY]
dissociation rate Koff (human IgG antibody): 0.0002 s⁻¹

H-QQNAFYEI-OH [Comparative Example 4, reference compound]
antibody binding properties (in words) (human IgG antibody): poor
dissociation rate Koff (human IgG antibody): 0.00024 s⁻¹
selectivity (in words) [2]: poor
